What was measured:
[1] = target: Activin receptor type-2A (Homo sapiens) (UniProt P27037); settings: Compound concentration 1000.0 nM
[2] = target: CREB-binding protein/Histone acetyltransferase p300 (Homo sapiens, UniProt Q09472+Q92793); experiment: Inhibition of H3K27Ac (LnCaP-FGC); format: cell-based; settings: lncap-clone-fgc
[3] = target: Mu-type opioid receptor (Homo sapiens) (UniProt P35372); settings: Compound concentration 10.0 uM
[4] = target: cGMP-inhibited 3',5'-cyclic phosphodiesterase 3A (Homo sapiens) (UniProt Q14432); experiment: PDE3A (h) CEREP ligand profiling; settings: Compound concentration 10.0 uM
Chain of cGMP-inhibited 3',5'-cyclic phosphodiesterase 3A (Homo sapiens) (Q14432 whole entry): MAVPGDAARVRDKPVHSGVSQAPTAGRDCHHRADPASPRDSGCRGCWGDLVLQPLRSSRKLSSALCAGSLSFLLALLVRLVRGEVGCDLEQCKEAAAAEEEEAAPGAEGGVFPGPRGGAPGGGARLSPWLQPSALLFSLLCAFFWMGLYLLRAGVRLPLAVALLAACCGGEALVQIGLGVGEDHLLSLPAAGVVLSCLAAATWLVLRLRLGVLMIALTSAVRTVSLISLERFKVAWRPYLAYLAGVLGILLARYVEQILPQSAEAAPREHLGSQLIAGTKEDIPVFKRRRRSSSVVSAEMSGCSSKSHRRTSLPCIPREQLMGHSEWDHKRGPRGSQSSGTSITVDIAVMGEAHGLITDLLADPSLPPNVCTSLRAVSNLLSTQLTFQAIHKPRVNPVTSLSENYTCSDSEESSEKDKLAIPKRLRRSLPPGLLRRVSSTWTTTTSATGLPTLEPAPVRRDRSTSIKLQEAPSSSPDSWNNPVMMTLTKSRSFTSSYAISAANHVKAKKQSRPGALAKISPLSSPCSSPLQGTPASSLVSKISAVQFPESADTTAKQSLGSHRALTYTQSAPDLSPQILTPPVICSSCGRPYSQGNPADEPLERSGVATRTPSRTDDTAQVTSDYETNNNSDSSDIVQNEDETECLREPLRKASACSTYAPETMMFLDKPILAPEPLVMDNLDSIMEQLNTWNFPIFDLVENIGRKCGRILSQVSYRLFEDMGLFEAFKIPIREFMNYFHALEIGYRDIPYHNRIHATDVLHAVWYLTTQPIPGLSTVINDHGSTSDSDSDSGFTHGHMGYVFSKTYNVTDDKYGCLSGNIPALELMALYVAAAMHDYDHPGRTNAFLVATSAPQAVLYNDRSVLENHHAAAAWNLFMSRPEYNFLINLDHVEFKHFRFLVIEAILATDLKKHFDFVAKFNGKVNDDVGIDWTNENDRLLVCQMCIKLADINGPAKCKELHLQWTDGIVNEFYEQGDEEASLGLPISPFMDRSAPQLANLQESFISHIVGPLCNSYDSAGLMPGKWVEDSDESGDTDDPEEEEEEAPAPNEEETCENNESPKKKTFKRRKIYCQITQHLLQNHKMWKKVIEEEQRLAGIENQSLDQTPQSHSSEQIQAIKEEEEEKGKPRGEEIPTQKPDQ

[5] = target: Receptor-type tyrosine-protein kinase FLT3 (Homo sapiens) (UniProt P36888); settings: Compound concentration 1000.0 nM
Chain of Receptor-type tyrosine-protein kinase FLT3 (Homo sapiens) (P36888 whole entry): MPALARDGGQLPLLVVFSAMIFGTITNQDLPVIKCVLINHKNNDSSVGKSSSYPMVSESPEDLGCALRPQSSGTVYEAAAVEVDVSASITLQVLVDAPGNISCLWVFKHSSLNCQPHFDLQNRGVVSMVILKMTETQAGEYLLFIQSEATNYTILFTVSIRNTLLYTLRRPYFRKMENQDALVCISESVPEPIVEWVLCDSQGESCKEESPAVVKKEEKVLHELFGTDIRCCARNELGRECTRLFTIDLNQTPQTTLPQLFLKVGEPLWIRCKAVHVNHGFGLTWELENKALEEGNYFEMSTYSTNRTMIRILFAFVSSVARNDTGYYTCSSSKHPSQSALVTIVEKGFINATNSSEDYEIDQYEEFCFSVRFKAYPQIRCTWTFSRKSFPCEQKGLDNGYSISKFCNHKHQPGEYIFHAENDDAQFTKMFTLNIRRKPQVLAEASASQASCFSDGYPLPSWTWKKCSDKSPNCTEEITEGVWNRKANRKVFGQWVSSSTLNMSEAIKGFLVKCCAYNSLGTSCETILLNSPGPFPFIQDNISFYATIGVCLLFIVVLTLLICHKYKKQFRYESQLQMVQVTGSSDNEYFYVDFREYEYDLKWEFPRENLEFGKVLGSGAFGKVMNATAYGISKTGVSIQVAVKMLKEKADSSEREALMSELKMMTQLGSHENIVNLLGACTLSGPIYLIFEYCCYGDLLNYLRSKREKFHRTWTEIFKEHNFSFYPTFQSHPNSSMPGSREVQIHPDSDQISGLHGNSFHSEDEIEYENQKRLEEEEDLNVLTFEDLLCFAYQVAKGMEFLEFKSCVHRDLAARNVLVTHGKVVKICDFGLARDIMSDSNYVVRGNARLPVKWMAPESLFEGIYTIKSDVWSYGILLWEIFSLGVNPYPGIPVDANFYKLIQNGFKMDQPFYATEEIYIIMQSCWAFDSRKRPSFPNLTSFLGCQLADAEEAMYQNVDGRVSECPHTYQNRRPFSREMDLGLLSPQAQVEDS

[6] = target: Endothelin receptor type B (Homo sapiens) (UniProt P24530); experiment: ETB (h) CEREP ligand profiling; settings: filed as agonist, Compound concentration 10.0 uM
Chain of Endothelin receptor type B (Homo sapiens) (P24530 whole entry): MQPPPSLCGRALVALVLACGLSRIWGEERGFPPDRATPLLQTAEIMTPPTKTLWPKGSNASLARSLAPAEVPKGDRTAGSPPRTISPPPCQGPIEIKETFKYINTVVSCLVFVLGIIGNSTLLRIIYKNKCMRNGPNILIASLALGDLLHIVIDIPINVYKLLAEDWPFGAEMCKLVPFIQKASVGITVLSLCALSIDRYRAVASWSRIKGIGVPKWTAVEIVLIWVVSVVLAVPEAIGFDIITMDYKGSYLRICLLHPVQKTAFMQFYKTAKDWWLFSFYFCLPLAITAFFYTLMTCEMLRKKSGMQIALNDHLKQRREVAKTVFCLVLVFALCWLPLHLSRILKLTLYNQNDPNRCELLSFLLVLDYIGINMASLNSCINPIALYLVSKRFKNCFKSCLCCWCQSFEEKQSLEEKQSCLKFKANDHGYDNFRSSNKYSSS

[7] = target: Beta-2 adrenergic receptor (Homo sapiens) (UniProt P07550); experiment: beta 2 (h) CEREP ligand profiling; settings: filed as agonist, Compound concentration 10.0 uM
Chain of Beta-2 adrenergic receptor (Homo sapiens) (P07550 whole entry, looked up): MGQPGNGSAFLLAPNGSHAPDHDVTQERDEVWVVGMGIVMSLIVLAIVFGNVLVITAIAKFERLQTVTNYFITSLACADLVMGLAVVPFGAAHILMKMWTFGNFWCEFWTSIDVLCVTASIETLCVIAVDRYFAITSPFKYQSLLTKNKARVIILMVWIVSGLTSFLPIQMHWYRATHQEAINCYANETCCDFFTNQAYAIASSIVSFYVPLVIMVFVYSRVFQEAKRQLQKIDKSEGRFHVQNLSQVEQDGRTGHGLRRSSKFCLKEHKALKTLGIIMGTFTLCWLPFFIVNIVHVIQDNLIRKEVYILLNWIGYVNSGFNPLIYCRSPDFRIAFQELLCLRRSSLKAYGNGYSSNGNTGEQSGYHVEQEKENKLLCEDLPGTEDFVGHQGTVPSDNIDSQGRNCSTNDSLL

NCI-H187 = experiment: H187 cell line Proliferation assay; format: functional, Homo sapiens; settings: Compound concentration 10 uM; time 4 day
Granta-519 = experiment: Granta 519 cell line Proliferation assay; format: functional, Homo sapiens; settings: Compound concentration 10 uM; time 3 day
NCI-H2444 = experiment: H2444 cell line Proliferation assay; format: functional, Homo sapiens; settings: Compound concentration 10 uM; time 3 day
[8] = target: B2 bradykinin receptor (Homo sapiens) (UniProt P30411); experiment: B2 (h) CEREP ligand profiling; settings: filed as agonist, Compound concentration 10.0 uM
Chain of B2 bradykinin receptor (Homo sapiens) (P30411 whole entry): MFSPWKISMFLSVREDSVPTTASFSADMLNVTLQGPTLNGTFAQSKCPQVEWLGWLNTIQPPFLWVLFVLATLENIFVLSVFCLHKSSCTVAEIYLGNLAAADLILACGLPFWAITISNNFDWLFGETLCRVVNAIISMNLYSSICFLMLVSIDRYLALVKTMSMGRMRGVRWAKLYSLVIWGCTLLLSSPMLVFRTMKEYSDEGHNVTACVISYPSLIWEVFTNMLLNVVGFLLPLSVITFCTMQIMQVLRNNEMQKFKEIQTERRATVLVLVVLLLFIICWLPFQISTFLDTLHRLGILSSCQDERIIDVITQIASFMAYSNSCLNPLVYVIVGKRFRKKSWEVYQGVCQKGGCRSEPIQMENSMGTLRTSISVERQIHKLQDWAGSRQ

SU-DHL-5 = experiment: SuDHL5 cell line Proliferation assay; format: functional, Homo sapiens; settings: Compound concentration 10 uM; time 3 day
MDA-MB-436 = experiment: MDA_MB_436 cell line Proliferation assay; format: functional, Homo sapiens; settings: Compound concentration 10 uM; time 5 day
U2932 = experiment: U2932 cell line Proliferation assay; format: functional, Homo sapiens; settings: Compound concentration 10 uM; time 3 day
NCI-H929 = experiment: H929 cell line Proliferation assay; format: functional, Homo sapiens; settings: Compound concentration 10 uM; time 3 day
SC1 = experiment: Sc1 cell line Proliferation assay; format: functional, Homo sapiens; settings: Compound concentration 10 uM; time 3 day
MDA-MB-468 = experiment: MDA_MB_468 cell line Proliferation assay; format: functional, Homo sapiens; settings: Compound concentration 10 uM; time 5 day
SU-DHL10 = experiment: SuDHL10 cell line Proliferation assay; format: functional, Homo sapiens; settings: Compound concentration 10 uM; time 3 day
[9] = target: Sodium-dependent serotonin transporter (Homo sapiens, UniProt P31645); experiment: GPCRScan assay: inhibition of SERT; parameters: radioligand conc. used [nm] 1.5 – 2.0, parental cells stable HEK
Chain of Sodium-dependent serotonin transporter (P31645 whole entry): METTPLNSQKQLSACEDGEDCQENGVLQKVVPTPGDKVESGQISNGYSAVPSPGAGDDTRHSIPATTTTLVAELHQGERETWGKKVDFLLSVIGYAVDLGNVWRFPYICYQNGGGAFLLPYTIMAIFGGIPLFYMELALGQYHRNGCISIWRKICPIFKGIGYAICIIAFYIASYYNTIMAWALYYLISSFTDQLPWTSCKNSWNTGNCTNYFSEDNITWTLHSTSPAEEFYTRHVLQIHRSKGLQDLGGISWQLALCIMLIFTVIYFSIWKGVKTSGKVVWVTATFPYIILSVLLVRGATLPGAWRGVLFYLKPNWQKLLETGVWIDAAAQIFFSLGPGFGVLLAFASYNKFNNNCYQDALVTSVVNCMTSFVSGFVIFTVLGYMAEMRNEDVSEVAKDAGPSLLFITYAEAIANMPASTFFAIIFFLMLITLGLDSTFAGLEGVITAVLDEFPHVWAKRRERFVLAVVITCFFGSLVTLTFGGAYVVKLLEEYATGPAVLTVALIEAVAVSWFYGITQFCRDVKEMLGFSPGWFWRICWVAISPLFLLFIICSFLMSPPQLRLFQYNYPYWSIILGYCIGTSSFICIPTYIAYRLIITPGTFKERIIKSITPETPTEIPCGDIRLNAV

SK-MEL-2 = experiment: SKMEL2 cell line Proliferation assay; format: functional, Homo sapiens; settings: Compound concentration 10 uM; time 5 day
U-937 = experiment: U937 cell line Proliferation assay; format: functional, Homo sapiens; settings: Compound concentration 10 uM; time 3 day
SU-DHL-6 = experiment: SuDHL6 cell line Proliferation assay; format: functional, Homo sapiens; settings: Compound concentration 10 uM; time 3 day

Chain of Mu-type opioid receptor (Homo sapiens) (P35372 whole entry): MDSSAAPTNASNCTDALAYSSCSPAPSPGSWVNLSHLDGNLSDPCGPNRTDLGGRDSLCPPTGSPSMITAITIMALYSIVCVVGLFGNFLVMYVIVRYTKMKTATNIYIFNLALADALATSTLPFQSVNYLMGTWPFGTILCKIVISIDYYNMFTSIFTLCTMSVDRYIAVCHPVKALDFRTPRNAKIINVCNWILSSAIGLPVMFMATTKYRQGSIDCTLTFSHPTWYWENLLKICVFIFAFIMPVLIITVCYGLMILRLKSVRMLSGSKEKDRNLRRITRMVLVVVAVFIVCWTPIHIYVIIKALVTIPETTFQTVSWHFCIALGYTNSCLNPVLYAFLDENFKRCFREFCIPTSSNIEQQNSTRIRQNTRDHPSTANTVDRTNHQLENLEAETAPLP
Chain of Activin receptor type-2A (Homo sapiens) (P27037 whole entry): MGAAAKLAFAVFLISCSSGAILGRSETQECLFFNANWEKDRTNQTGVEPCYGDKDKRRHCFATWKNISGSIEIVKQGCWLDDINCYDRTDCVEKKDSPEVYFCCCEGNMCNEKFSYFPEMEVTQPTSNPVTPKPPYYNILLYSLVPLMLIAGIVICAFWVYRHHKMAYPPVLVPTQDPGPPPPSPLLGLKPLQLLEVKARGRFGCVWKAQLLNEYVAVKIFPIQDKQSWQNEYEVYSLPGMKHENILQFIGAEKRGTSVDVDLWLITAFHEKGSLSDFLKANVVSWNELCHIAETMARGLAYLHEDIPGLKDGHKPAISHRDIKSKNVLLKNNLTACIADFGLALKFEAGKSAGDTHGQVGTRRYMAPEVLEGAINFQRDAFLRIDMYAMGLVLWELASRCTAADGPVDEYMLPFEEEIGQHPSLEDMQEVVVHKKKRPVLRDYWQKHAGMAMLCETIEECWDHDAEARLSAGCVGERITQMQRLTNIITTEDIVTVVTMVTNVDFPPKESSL

Compound `CNC(=O)Nc1ccc2c(c1)[C@@]1(CC2)OC(=O)N(CC(=O)N(Cc2ccc(F)cc2)[C@@H](C)C(F)(F)F)C1=O` [A-486] has a residual activity [1] of 100%, an IC50 [2] greater than 10000 nM and an inhibition [3] of -5.11%. For the same compound, the inhibition [4] was -1%, the residual activity [5] was 92% and the inhibition [6] was 8%. For the same compound, the inhibition [7] was 1%.
In the case of `CNC(=O)Nc1ccc2c(c1)CC[C@@]21OC(=O)N(CC(=O)N(Cc2ccc(F)cc2)[C@@H](C)C(F)(F)F)C1=O` [A-485], the “Cell Proliferation EC50” value (NCI-H187) is reported as greater than 10000 nM, the “Cell Proliferation EC50” value (Granta-519) is reported as 3280 nM and the “Cell Proliferation EC50” value (NCI-H2444) is reported as 5918 nM. The inhibition [8] was 0%, the “Cell Proliferation EC50” value (SU-DHL-5) was 760.6 nM and the “Cell Proliferation EC50” value (MDA-MB-436) was greater than 10000 nM. The “Cell Proliferation EC50” value (U2932) was 2460 nM, the “Cell Proliferation EC50” value (NCI-H929) was 329 nM and the “Cell Proliferation EC50” value (SC1) was 1689 nM. The “Cell Proliferation EC50” value (MDA-MB-468) was 376.7 nM, the “Cell Proliferation EC50” value (SU-DHL10) was 916.9 nM and the Ki ([9]; read-out: Ki) was 223 nM. The Ki ([9]; read-out: pKi (converted)) was 219 nM, the “Cell Proliferation EC50” value (SK-MEL-2) was greater than 10000 nM and the “Cell Proliferation EC50” value (U-937) was greater than 10000 nM. For the same compound, the “Cell Proliferation EC50” value (SU-DHL-6) was 745.7 nM.
